Data set [1] in a line: Pharmacokinetic study in rats (intragastrical administration). To be noted: plasma.
Protocol: (§1) All measurement data were collected and processed by Masslynx V4.1 software, and the data were calculated and processed by Microsoft Excel. The statistical moment method of WinNonLin 8.0 software was used to calculate the pharmacokinetic parameters. These mainly include kinetic parameters Tmax, T1/2, Cmax, AUC0-24 h etc. Column: ACQUITY UPLC BEH C18 (2.1 mm×50 mm, 1.7 μm); column temperature 40° C.; mobile phase A is water (0.1% formic acid), mobile phase B is acetonitrile, flow rate is 0.350 mL/min, gradient elution is adopted, the elution gradient is 0.50 min: 10% B; 1.50 min: 90% B; 2.50 min: 90% B; 2.51 min: 10% B; 3.50 min: stop. Injection volume: 1 μL.
(§2) Animals: 3 male SD rats with a weight range of 200-220 g were purchased and kept in the laboratory of the Experimental Animal Center for 2 days and then used. They were fasted for 12 hours predose and 4 hours after dosing. Drinking water was free during the test. After the rats were gavage, blood samples were taken according to the established time point.
(§3) Solvent: 0.4% ethanol+0.4% Tween80+99.2% (0.5% methylcellulose M450). Preparation of the solution for intragastrical administration: the compounds were accurately weighed and added to the solvent, and ultrasound was used at room temperature for 5 minutes to completely dissolve the drug, and a 0.3 mg/mL medicinal solution was prepared.
(§4) A single administration was also used to study the pharmacokinetics of the drug sample in rats.
(§5) After intragastrical administration, blood was taken from the orbit at 0.25, 0.5, 1, 2, 4, 8, 10 and 24 hours. Then 50 μL of the plasma sample was taken and added 200 μL of acetonitrile (including internal standard control verapamil 2 ng/mL), vortexed for 3 min and centrifuged at 20000 rcf, 4° C. for 10 min. The supernatant plasma was used for LC-MS/MS analysis.
(§6) The compounds were accurately weighed to prepare different concentrations, and quantitative analysis on mass spectrometry was performed to establish a standard curve, and then the concentration of the above-mentioned compound in the plasma was tested to obtain its concentration at different time points. All measurement data were collected and processed by relevant software, and the statistical moment method was used to calculate the pharmacokinetic parameters (mainly including kinetic parameters Tmax, T1/2, Cmax, AUC0-24 h etc).
The target in data set [2] is KAT6A enzyme (catalytic domain) (Homo sapiens (Human), UniProt Q92794). The data set is described as follows: Inhibition of KAT6A enzyme activity ([3H]-acetyl-CoA / H3 (1-21) peptide, Flashplate). The conditions noted are these: for IC50: KAT6A catalytic domain, [3H]-acetyl-CoA, substrate peptide H3 (1-21); for inhibition at 0.011 µM: KAT6A, compound concentration 11 nM, read-out: Inhibition % of compounds at the concentration of 11 nM. It is filed as biochemical. The procedure: No. […] The plate was incubated at room temperature for 1 hour. 10 μL of the stop solution was added to terminate the reaction. 25 μL of the reaction solution was transferred to a Flashplate (Perkin Elmer, Cat. No. […]) and incubated at room temperature for 1 hour. The plate was read using Microbeta. The inhibition rate of the compounds was calculated using the formula of Excel: inhibition %=(Max-Signal)/(Max-Min)*100%. Where max is the value of the DMSO control, min is the value of the non-enzymatic control, and signal is the value of the well where the compound was tested. The curve was fitted using XLFit software and IC50 was calculated.

For data set [3] the following is noted: rat, in vivo, po, 3 mg/kg.
Protocol: as §1, §2, §3, §4, §5, §6
[4] abbreviates: male SD rats, intragastrical, 1.5 mg/Kg.

Read-outs that look alike come from different tables or passages of the source.

A word on the Cmax: it is the highest concentration seen after dosing. In general, Tmax refers to the time at which the peak concentration occurs. By IC50 is commonly meant the concentration at which inhibition is half-maximal. In general, AUC(0-t) refers to exposure summed from dosing to a finite time, without extrapolation to infinity. Lower therefore signals low exposure. One may read the half-life as the time needed for the level to fall by half in the phase considered.

Chain of KAT6A enzyme (catalytic domain) (Q92794 504-778): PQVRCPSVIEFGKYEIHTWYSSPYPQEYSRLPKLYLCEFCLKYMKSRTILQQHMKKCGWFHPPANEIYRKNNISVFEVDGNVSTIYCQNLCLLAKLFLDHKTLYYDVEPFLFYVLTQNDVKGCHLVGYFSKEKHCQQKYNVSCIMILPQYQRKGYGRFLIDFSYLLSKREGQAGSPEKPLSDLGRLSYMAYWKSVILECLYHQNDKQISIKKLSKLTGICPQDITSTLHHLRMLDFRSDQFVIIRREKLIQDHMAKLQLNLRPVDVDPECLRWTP

As for `COc1ccc(OC2CCC2)cc1S(=O)(=O)Nc1noc2cc(Cn3cccn3)cc(OC)c12` [Compound 1], in data set [1] (setting [4]), the AUC0-24h turned out to be 4481.07 ng·h/mL, the Cmax came out at 392.76 ng/mL, the T1/2 came out at 2.66 h and the Tmax is 3.00 h. In data set [2], this compound had an IC50 of less than 5 nM.

Turning to `COc1ccc(N2CCC2)cc1S(=O)(=O)Nc1noc2cc(Cn3cccn3)cc(OC)c12` [Compound 2], the IC50 in data set [2] was less than 10 nM.

In data set [2], `C#Cc1cc(OC)c(S(=O)(=O)Nc2noc3cc(Cn4cccn4)cc(OC)c23)c(OC)c1` [Compound 4] returned a half-maximal inhibitory concentration (IC50) of less than 5 nM. In addition, in data set [3], the AUC0-24h was 109958.71 ng·h/mL, the Cmax came to 6737.13 ng/mL, the T1/2 came out at 8.04 h and the Tmax is 9.33 h.

Take `C#Cc1ccc(S(=O)(=O)Nc2noc3cc(Cn4cccn4)cc(OC)c23)c(OC)c1` [Compound 11]: in data set [1] (male, SD, rat, po, 2 mg/kg), the area under the curve AUC(0-t) came to 53700 ng·h/mL, the concentration peaked (Cmax) at 6380 ng/mL, the Tmax was 1.33 h and the half-life is 5.29 h.

Take `COc1cc(C#CC2CC2)ccc1S(=O)(=O)Nc1noc2cc(Cn3cccn3)cc(OC)c12` [Compound 12]: in data set [1] (male, SD, rat, po, 3 mg/kg), the area under the curve AUC(0-t) is 82200 ng·h/mL, the highest concentration (Cmax) came to 4830 ng/mL, the Tmax came to 2 h and the half-life is 24.6 h.

For `COc1cc(C#CC2COC2)cc(OC)c1S(=O)(=O)Nc1noc2cc(Cn3cccn3)cc(OC)c12` [Compound 14], in data set [1] (male, SD, rat, po, 3 mg/kg), the AUC(0-t) amounted to 5960 ng·h/mL, the highest level (Cmax) was 428 ng/mL, the Tmax turned out to be 3.33 h and the half-life was 6.62 h. Further, the inhibition at 0.011 µM in data set [2] came to 67%.

Turning to `COc1cc(C#CC2CC(F)(F)C2)cc(OC)c1S(=O)(=O)Nc1noc2cc(Cn3cccn3)cc(OC)c12` [Compound 15], in data set [1] (male, SD, rat, po, 3 mg/kg), the area under the curve AUC(0-t) came out at 32500 ng·h/mL, the Cmax turned out to be 2120 ng/mL, the Tmax came out at 3.33 h and the half-life is 7.85 h.

With `CC#Cc1ccc(S(=O)(=O)Nc2noc3cc(Cn4cccn4)cc(OC)c23)c(OC)c1` [Compound 16], in data set [1] (male, SD, rat, po, 3 mg/kg), the exposure AUC(0-t) was found to be 45300 ng·h/mL, the Cmax came out at 2790 ng/mL, the time of peak concentration (Tmax) stood at 2.67 h and the half-life was 14.4 h.

As to `COc1cc(N2CCC2)ccc1S(=O)(=O)Nc1noc2cc(Cn3cccn3)cc(OC)c12` [Compound 17], in data set [1] (male, SD, rat, po, 3 mg/kg), the AUC(0-t) amounted to 3120 ng·h/mL, the Cmax was 229 ng/mL, the time of peak concentration (Tmax) is 2.67 h and the half-life was 3.17 h. In data set [2], the inhibition at 0.011 µM is 75%.

For the origin of these results see patent publication US20240400545A1, “COMPOUND SERVING AS KAT6 INHIBITOR” (Hangzhou Innogate Pharma Co., Ltd., priority 2021, published 2024).
